{"source": "patent US9220705B2", "about": "“Method of treating colorectal cancer” (priority 2013, dated 2015)", "key": {"[1]": {"test_system": "LoVo MDR multidrug resistant colon carcinoma subline", "assay": "MTT cytotoxicity assay, cross-resistance profile", "format": "cell-based, human", "from_the_text": "(§1) Human breast (MCF-7) and colon (HCT-15, DDL1, SW480 and CaCo-2) carcinoma cell lines along with melanoma (A375) were obtained from the American Type Culture Collection (ATCC, Rockville, Md.). A431 are human cervical carcinoma cells kindly provided by Prof. F. Zunino (Molecular Pharmacology Unit, Experimental Oncology and Molecular Medicine, Istituto Nazionale dei Tumori, Milan, Italy). […] G. Marverti (Dept. of Biomedical Science, University of Modena, Italy). LoVo human colon-carcinoma cell line and its multidrug-resistant sublime (LoVo MDR) were kindly provided by Prof F. Maj one (Department of Biology of Padova University, Italy). […] Cell lines were maintained in the logarithmic phase at 37° C. in a 5% carbon dioxide atmosphere using the following culture media containing 10% fetal calf serum (Euroclone, Milan, Italy), antibiotics (50 units mL^−1 penicillin and 50 μg mL^−1 streptomycin), and 2 mM L-glutamine in: i) RPMI-1640 medium (Euroclone) for MCF-7, HCT-15, A431, DLD 1, 2008, and C13* cells; ii) F-12 HAM'S (Sigma Chemical Co.) for LoVo, LoVo MDR, and LoVo-OXP cells; iii) DMEM for A375 and SW 480 cells; and iv) MEM for CaCo-2 cells.\n(§2) The growth inhibitory effect towards tumor cell lines was evaluated by means of the MTT (3-(4,5-dimethylthiazol-2-yl)-2,5-diphenyltetrazolium bromide) assay (Alley, M. C., et al., Cancer Res. 1988, 48, 589-601).\n(§3) Briefly, depending upon the growth characteristics of the cell line, 3-8×10^3 cells well^−1, were seeded in 96-well microplates in growth medium (100 μL) and then incubated at 37° C. in a 5% carbon dioxide atmosphere. After 24 h, the medium was removed and replaced with a fresh one containing the compound to be studied, at the appropriate concentration, dissolved in 0.9% sodium chloride solution just before use. Triplicate cultures were established for each treatment. After 72 h, each well was treated with […] of a 5 mg mL^−1 MTT saline solution and, after 5 h of incubation, 100 μL of a sodium dodecylsulfate (SDS) solution in 0.01 M HCl were added. After an overnight incubation, the inhibition of cell growth induced by the tested complexes was determined by measuring the absorbance of each well at 570 nm using a BioRad 680 microplate reader. Mean absorbance for each drug dose was expressed as percentage of the control and plotted vs. drug concentration. Dose-response curves were fitted and IC50 values were calculated with four parameter logistic model (4PL).\n(§4) A LoVo cell line retaining a multidrug resistance phenotype was also considered (LoVo MDR). Cross-resistance profiles were evaluated by means of the resistance factor (RF), which is defined as the ratio between the IC50 value for the resistant cells and that arising from the sensitive cells (Table 2).\nIn Table 2 are also reported the results obtained in a multidrug resistant (MDR) colon carcinoma subline, LoVo MDR, in which the resistance to doxorubicin, a drug belonging to the MDR spectrum, is associated with an overexpression of multi-specific drug transporters, such as the 170 kDa P-glycoprotein (P-gp) (Wersinger, C., et al., Amino Acids 2000, 19, 667-685). It is well known that acquired MDR, whereby cells become refractory to multiple drugs, poses most important challenge to the success of anticancer chemotherapy."}, "[2]": {"test_system": "LoVo colorectal adenocarcinoma xenografts", "assay": "In vivo anticancer activity, oxaliplatin-sensitive colorectal xenograft", "set-up": "species or system BALB/c nu/nu mice", "conditions": "LoVo xenograft; daily ip day 14 to day 30; 1 at 3 mg/kg, OXP at 2 mg/kg; tumor volume at day 30", "description": "(§5) LoVo and LoVo-OXP tumor xenografts were established in 6-week-old BALB/c nu/nu mice by injecting 1×10^7 tumor cells subcutaneously (100 μL in serum free medium) on the left dorsal flank. After 24 h from tumor implantation, mice were randomly divided into five groups (6 animals per group, 8 controls). Chemotherapy was delayed until the tumor became palpable (day 14). From day 14, 1 was dosed daily at 3 mg/kg ip whereas OXP was dosed daily at 2 mg/kg ip. Measurements of body weights and tumor volumes were recorded every 2 days until the experimental endpoint. The long axis (L) and the short axis (S) were measured with caliper, and the tumor volume (V) was calculated using the following equation: V=S×S×L/2. At day 30, animals were sacrificed, and the inhibition of tumor growth was determined by comparing the volume of the control group and the treatment group expressed as % referred to the control animals.\n(§6) All the values are the means±S.D. of not less than three measurements. Multiple comparisons were made by Tukey-Kramer test (**p<0.01; *p<0.05)."}, "[3]": {"test_system": "2008 ovarian cancer cells", "assay": "MTT cytotoxicity assay, cross-resistance profile", "format": "cell-based, human", "conditions": "72 h", "from_the_text": "as §1, §2, §3, §4"}, "[4]": {"test_system": "C13* cisplatin resistant ovarian cancer cells", "assay": "MTT cytotoxicity assay, cross-resistance profile", "format": "cell-based, human", "conditions": "for R.F. (resistance factor): IC50 C13* / IC50 2008, cross-resistance with cisplatin", "from_the_text": "as §1, §2, §3, §4"}, "[5]": {"test_system": "LoVo-OXP oxaliplatin resistant colon cancer cells", "assay": "MTT cytotoxicity assay, cross-resistance profile", "format": "cell-based, human", "conditions": "for R.F. (resistance factor): IC50 LoVo-OXP / IC50 LoVo, cross-resistance with oxaliplatin", "from_the_text": "as §1, §2, §3, §4"}, "[6]": {"test_system": "LoVo-OXP colorectal adenocarcinoma xenografts", "assay": "In vivo anticancer activity, oxaliplatin-resistant colorectal xenograft", "set-up": "species or system BALB/c nu/nu mice", "description": "as §5, §6"}, "HCT-15": {"test_system": "HCT-15", "assay": "MTT cytotoxicity assay, 72 h", "format": "cell-based, human", "conditions": "HCT-15, colon", "from_the_text": "as §1, §2, §3\nCompound 1 was prepared for the first time almost twenty years ago however, until now, it had been tested (both in vitro and in vivo) only in a limited number of tumor cell lines (Hoeschele, J. D., et al., J. Med. Chem. 1994, 37, 2630-2636 and Shamsuddin, S., et al., J. Inorg. Biochem. 1996, 61, 291-301). The Pt(II) and Pt(IV) complexes containing isomeric forms of diaminocyclohexane, [PtCl2(cis-1,4-DACHA](1), [PtCl2(1R,2R-DACH)] (2), [Pt(OXA)(cis-1,4-DACH)] (3), cis,trans,cis-[Pt^IVCl2(OH)2(cis-1,4-DACH)] (4), cis,trans,cis-[Pt^IVCl2(DCA)2(cis-1,4-DACH)] (5), [Pt(CBDCA)(cis-1,4-DACH)] (6), cis,trans,cis-[Pt^IV(OXA)(OH)2(cis-1,4-DACH)] (7), and cis,trans,cis-[Pt^IV(OXA)(DCA)2(cis-1,4-DACH)] (8) were evaluated for their cytotoxic activity towards a panel of human tumor cell lines including cervical (A431), breast (MCF-7), cancers along with a melanoma (A375) and 4 different colon cancer cell lines corresponding to different stages of the disease progression (HCT-15, SW480, CaCo-2, DLD-1). The cytotoxicity was evaluated by means of the MTT test for 72 h treatment with increasing concentrations of the tested compounds."}}, "data": [{"smiles": "O=C1[O][Pt-2]2([NH2+]C3CCCC[C@H]3[NH2+]2)[O]C1=O", "note": "(stereo partly drawn) [oxaliplatin, [(1R,2R)-cyclohexane-1,2diamine](ethanedioato)platinum(II), reference compound]", "values": [{"measurement": "R.F. (resistance factor)", "setting": "[1]; IC50 LoVo-MDR / IC50 LoVo", "result": 1.3}, {"measurement": "IC50", "setting": "[1]; LoVo-MDR, 72 h, MTT", "result": "1.36 ± 0.81", "unit": "µM"}, {"measurement": "tumor growth inhibition", "setting": "[2]", "result": 54, "unit": "%"}, {"measurement": "IC50", "setting": "[3]", "result": "1.65 ± 1.01", "unit": "µM"}, {"measurement": "IC50", "setting": "[4]; C13*, 72 h, MTT", "result": "3.33 ± 1.84", "unit": "µM"}, {"measurement": "R.F. (resistance factor)", "setting": "[4]", "result": 2.0}, {"measurement": "R.F. (resistance factor)", "setting": "[4]; listed as OXP", "result": 2}, {"measurement": "R.F. (resistance factor)", "setting": "[5]", "result": 17}, {"measurement": "R.F. (resistance factor)", "setting": "[5]; listed as OXP", "result": 17}, {"measurement": "IC50", "setting": "[5]; LoVo-OXP, 72 h, MTT", "result": "17.5 ± 1.79", "unit": "µM"}, {"measurement": "antitumor activity, times lower than that exerted by 1", "setting": "[6]; LoVo-OXP models", "result": 2.4}, {"measurement": "tumor growth inhibition", "setting": "[6]; LoVo-OXP xenograft, daily ip day 14 to day 30, 1 at 3 mg/kg, OXP at 2 mg/kg, tumor volume at day 30", "result": 24, "unit": "%"}, {"measurement": "IC50", "setting": "HCT-15", "result": "1.25 ± 1.05", "unit": "µM"}]}]}
